Each block holds one compound with its values, some of them ahead of it. Calls of active or inactive are those of the source.
Key:
Format in all cases: functional
[1] = biological target: Aurora kinase A (Homo sapiens, UniProt O14965);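 note: value from the Navigating the Kinome kinase panel profiling, panel entry STK6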
[2] = biological target: Inhibitor of nuclear factor kappa-B kinase subunit epsilon (Homo sapiens, UniProt Q14164); assay: Navigating the Kinome. Panel member name: IKBKE
[3] = biological target: Serine/threonine-protein kinase TBK1 (Homo sapiens, UniProt Q9UHD2); assay: Navigating the Kinome. Panel member name: TBK1
[4] = biological target: Serine/threonine-protein kinase PAK 4 (Homo sapiens, UniProt O96013);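 note: value obtained within a kinome profiling panel in which PAK4 was one of the panel members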
[5] = biological target: Fibroblast growth factor receptor 1 (Homo sapiens, UniProt P11362)
[6] = biological target: Macrophage-stimulating protein receptor (Homo sapiens, UniProt Q04912); assay: Navigating the Kinome. Panel member name: MST1R
[7] = biological target: Dual specificity protein kinase CLK2 (Homo sapiens, UniProt P49760)
[8] = biological target: MAP/microtubule affinity-regulating kinase 3 (Homo sapiens, UniProt P27448);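 note: MARK3 affinity measured as one member of a kinome panel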
[9] = biological target: Calcium/calmodulin-dependent protein kinase type II subunit alpha (Homo sapiens, UniProt Q9UQM7); assay: Navigating the Kinome. Panel member name: CAMK2A
[10] = biological target: Serine/threonine-protein kinase pim-1 (Homo sapiens, UniProt P11309)
[11] = biological target: Mitogen-activated protein kinase 8 (Homo sapiens, UniProt P45983);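 note: value comes from one member of a kinome-wide kinase profiling panel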
[12] = biological target: cAMP-dependent protein kinase catalytic subunit alpha (Homo sapiens, UniProt P17612)
[13] = biological target: Dual specificity mitogen-activated protein kinase kinase 1 (Homo sapiens, UniProt Q02750); assay: Navigating the Kinome. Panel member name: MAP2K1
[14] = biological target: Dual specificity protein kinase CLK4 (Homo sapiens, UniProt Q9HAZ1)
[15] = biological target: Ribosomal protein S6 kinase alpha-3 (Homo sapiens, UniProt P51812);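 note: measured within a kinome-wide profiling panel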
[16] = biological target: Platelet-derived growth factor receptor alpha (Homo sapiens, UniProt P16234); assay: Navigating the Kinome. Panel member name: PDGFRA
[17] = biological target: Proto-oncogene tyrosine-protein kinase receptor Ret (Homo sapiens, UniProt P07949);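 note: measured within a kinome-wide profiling panel, RET as the panel member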
[18] = biological target: Tyrosine-protein kinase Lck (Homo sapiens, UniProt P06239);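 note: lck was assayed as one member of a kinase panel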
[19] = biological target: Dual specificity mitogen-activated protein kinase kinase 2 (Homo sapiens, UniProt P36507); assay: Navigating the Kinome. Panel member name: MAP2K2
[20] = biological target: Insulin-like growth factor 1 receptor (Homo sapiens, UniProt P08069); assay: Navigating the Kinome. Panel member name: IGF1R
[21] = biological target: G protein-coupled receptor kinase 5 (Homo sapiens, UniProt P34947); assay: Navigating the Kinome. Panel member name: GPRK5
[22] = biological target: Receptor-type tyrosine-protein kinase FLT3 (Homo sapiens, UniProt P36888);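 note: FLT3 was tested as one member of a kinome-wide kinase panel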
[23] = biological target: Tyrosine-protein kinase ABL1 (Homo sapiens, UniProt P00519)
[24] = biological target: cAMP-dependent protein kinase catalytic subunit PRKX (Homo sapiens, UniProt P51817)
[25] = biological target: Tyrosine-protein kinase receptor TYRO3 (Homo sapiens, UniProt Q06418);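 note: TYRO3 value obtained as one member of a kinome-wide profiling panel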
[26] = biological target: Leukocyte tyrosine kinase receptor (Homo sapiens, UniProt P29376); assay: Navigating the Kinome. Panel member name: LTK
[27] = biological target: Death-associated protein kinase 3 (Homo sapiens, UniProt O43293);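 note: measured as one member of a kinome-wide profiling panel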
[28] = biological target: Vascular endothelial growth factor receptor 2 (Homo sapiens, UniProt P35968)
[29] = biological target: Mitogen-activated protein kinase kinase kinase kinase 5 (Homo sapiens, UniProt Q9Y4K4);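 note: measured as one member of a kinome-spanning kinase panel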
[30] = biological target: Dual specificity tyrosine-phosphorylation-regulated kinase 1A (Homo sapiens, UniProt Q13627);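 note: measured against DYRK1A as one member of a broad kinome profiling panel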
[31] = biological target: Glycogen synthase kinase-3 alpha (Homo sapiens, UniProt P49840);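 note: GSK3A result taken from a broad kinome-wide kinase panel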
[32] = biological target: Mitogen-activated protein kinase 14 (Homo sapiens, UniProt Q16539);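 note: part of a kinome-wide panel, MAPK14 entry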
[33] = biological target: ALK tyrosine kinase receptor (Homo sapiens, UniProt Q9UM73);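 note: ALK tested as one member of a kinase panel screen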
[34] = biological target: Glycogen synthase kinase-3 beta (Homo sapiens, UniProt P49841);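 note: value comes from a broad kinome profiling panel, with GSK3B as the panel member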
[35] = biological target: Tyrosine-protein kinase JAK2 (Homo sapiens, UniProt O60674);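 note: JAK2 tested as one member of a kinase panel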
[36] = biological target: 5'-AMP-activated protein kinase catalytic subunit alpha-1 (Homo sapiens, UniProt Q13131)
[37] = biological target: Cyclin-dependent kinase 19 (Homo sapiens, UniProt Q9BWU1); assay: Navigating the Kinome. Panel member name: CDC2L6
[38] = biological target: Cyclin-dependent kinase 9 (Homo sapiens, UniProt P50750);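 note: value from the CDK9 entry of a kinome-spanning kinase panel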
[39] = biological target: Serine/threonine-protein kinase TAO1 (Homo sapiens, UniProt Q7L7X3)
[40] = biological target: Mitogen-activated protein kinase 9 (Homo sapiens, UniProt P45984);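 note: value from a kinome panel profiling assay, MAPK9 panel entry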
[41] = biological target: Macrophage colony-stimulating factor 1 receptor (Homo sapiens, UniProt P07333);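 note: value comes from the Navigating the Kinome screening panel, CSF1R member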
[42] = biological target: Casein kinase I isoform alpha (Homo sapiens, UniProt P48729)
[43] = biological target: Mitogen-activated protein kinase kinase kinase kinase 2 (Homo sapiens, UniProt Q12851);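 note: measured as one member of a kinome-wide kinase panel, with MAP4K2 as the panel entry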
[44] = biological target: Tyrosine-protein kinase Fyn (Homo sapiens, UniProt P06241)
[45] = biological target: Mitogen-activated protein kinase kinase kinase kinase 4 (Homo sapiens, UniProt O95819)
[46] = biological target: Cyclin-dependent kinase 8 (Homo sapiens, UniProt P49336); assay: Navigating the Kinome. Panel member name: CDK8
[47] = biological target: Vascular endothelial growth factor receptor 1 (Homo sapiens, UniProt P17948);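 note: measured within a kinome-wide profiling panel, FLT1 as the panel member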
[48] = biological target: Tyrosine-protein kinase JAK3 (Homo sapiens, UniProt P52333)
[49] = biological target: Leucine-rich repeat serine/threonine-protein kinase 2 (Homo sapiens, UniProt Q5S007);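 note: value from a broad kinome-wide panel profiling study in which LRRK2 was one of the kinases tested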
[50] = biological target: Neuropeptides B/W receptor type 1 (Homo sapiens, UniProt P48145); assay: human NPBW1 receptor blockade, IC50 – cell-based, fluorescence, dose response, set 5, late-stage follow-up (AID 588566)
[51] = biological target: Melanin-concentrating hormone receptor 1 (Homo sapiens, UniProt Q99705); assay: Late-stage fluorescence-based counterscreen for antagonists of the G-protein coupled receptor 7 (GPR7): cell-based dose response assay to identify antagonists of the melanin-concentrating hormone receptor 1 (MCHR1) Set 5.
[52] = biological target: T1, DNA dC->dU-editing enzyme APOBEC-3G (Homo sapiens, UniProt Q9HC16); assay: Dose Response confirmation of small molecule APOBEC3G DNA Deaminase Inhibitors via a fluorescence-based single-stranded DNA deaminase assay. [Related pubchem assays (depositor defined):AID493012, AID493028]
[53] = biological target: T1, DNA dC->dU-editing enzyme APOBEC-3G; assay: SAR analysis of small molecule inhibitors of APOBEC3G DNA Deaminase via a fluorescence-based single-stranded DNA deaminase assay - Set 2.; settings: read-out: IC50_Mean
[54] = biological target: T2, DNA dC->dU-editing enzyme APOBEC-3A (Homo sapiens, UniProt P31941); assay: SAR analysis of small molecule inhibitors of APOBEC3A DNA Deaminase via a fluorescence-based single-stranded DNA deaminase assay - Set 2.; settings: read-out: IC50_Mean
[55] = biological target: T3, Rac GTPase-activating protein 1 (Homo sapiens, UniProt Q9H0H5); assay: blockers of MgcRacGAP-driven Rac1 GTP hydrolysis – biochemical, ADP Hunter fluorescence, primary and confirmatory, confirmation (AID 624330)
T3 sequence (Q9H0H5 whole entry): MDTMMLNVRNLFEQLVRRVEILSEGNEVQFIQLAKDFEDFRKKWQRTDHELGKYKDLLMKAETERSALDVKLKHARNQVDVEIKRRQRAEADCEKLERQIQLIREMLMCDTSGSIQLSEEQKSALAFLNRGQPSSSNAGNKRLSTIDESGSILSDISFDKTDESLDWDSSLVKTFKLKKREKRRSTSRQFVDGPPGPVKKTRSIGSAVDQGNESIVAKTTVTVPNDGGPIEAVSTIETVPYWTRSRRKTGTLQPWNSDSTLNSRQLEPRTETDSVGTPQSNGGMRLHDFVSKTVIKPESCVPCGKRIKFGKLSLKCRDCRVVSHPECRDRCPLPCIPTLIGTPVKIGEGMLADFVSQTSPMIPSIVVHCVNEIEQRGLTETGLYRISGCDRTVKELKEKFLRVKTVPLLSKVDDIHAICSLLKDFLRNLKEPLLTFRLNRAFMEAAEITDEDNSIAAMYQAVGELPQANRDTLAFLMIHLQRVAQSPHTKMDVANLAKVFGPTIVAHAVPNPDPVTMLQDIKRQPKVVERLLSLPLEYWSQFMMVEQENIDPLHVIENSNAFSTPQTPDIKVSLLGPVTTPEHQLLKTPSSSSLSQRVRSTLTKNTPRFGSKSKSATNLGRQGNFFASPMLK

[56] = biological target: T2, DNA dC->dU-editing enzyme APOBEC-3A; assay: A3A deaminase inhibition for selectivity – biochemical, dose response (AID 504722)

T1 sequence (Q9HC16 whole entry): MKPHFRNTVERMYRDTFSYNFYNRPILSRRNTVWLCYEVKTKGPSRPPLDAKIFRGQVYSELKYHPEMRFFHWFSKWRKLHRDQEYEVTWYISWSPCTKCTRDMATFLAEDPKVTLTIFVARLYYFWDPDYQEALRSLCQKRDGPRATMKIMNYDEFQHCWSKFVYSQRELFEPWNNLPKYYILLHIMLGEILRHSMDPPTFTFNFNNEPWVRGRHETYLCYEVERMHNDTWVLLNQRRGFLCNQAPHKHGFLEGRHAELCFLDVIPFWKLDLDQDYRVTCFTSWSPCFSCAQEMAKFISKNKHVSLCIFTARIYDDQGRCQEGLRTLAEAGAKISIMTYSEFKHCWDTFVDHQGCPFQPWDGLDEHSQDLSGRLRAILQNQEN
T2 sequence (P31941 whole entry): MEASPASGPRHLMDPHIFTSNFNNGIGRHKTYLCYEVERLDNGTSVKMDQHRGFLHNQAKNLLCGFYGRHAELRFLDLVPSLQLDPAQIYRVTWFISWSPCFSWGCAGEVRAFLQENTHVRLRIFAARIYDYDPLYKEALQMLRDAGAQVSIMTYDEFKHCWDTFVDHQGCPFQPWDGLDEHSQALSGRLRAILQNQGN
Chain of Fibroblast growth factor receptor 1 (P11362 whole entry): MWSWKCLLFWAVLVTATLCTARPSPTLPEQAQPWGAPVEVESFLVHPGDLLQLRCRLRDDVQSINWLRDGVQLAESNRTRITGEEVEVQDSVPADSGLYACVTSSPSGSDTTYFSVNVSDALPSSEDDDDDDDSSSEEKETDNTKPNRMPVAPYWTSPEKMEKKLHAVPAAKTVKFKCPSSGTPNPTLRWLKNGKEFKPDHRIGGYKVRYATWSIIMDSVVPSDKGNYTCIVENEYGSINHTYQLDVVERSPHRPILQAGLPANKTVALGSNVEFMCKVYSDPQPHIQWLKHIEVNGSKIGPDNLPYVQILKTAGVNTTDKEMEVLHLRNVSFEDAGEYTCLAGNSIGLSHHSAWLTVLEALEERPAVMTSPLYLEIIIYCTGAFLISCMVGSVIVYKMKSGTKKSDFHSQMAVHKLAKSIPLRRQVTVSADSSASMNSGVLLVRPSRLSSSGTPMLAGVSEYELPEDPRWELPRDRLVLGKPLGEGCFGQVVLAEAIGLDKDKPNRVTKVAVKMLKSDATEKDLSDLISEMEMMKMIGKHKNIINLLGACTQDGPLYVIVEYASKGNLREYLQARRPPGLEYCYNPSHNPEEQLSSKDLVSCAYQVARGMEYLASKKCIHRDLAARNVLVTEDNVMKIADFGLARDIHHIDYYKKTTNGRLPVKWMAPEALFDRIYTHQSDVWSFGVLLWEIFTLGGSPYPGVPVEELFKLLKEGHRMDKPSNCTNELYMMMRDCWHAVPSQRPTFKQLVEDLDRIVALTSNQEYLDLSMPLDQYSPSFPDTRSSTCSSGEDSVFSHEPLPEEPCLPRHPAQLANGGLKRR
Chain of 5'-AMP-activated protein kinase catalytic subunit alpha-1 (Q13131 whole entry): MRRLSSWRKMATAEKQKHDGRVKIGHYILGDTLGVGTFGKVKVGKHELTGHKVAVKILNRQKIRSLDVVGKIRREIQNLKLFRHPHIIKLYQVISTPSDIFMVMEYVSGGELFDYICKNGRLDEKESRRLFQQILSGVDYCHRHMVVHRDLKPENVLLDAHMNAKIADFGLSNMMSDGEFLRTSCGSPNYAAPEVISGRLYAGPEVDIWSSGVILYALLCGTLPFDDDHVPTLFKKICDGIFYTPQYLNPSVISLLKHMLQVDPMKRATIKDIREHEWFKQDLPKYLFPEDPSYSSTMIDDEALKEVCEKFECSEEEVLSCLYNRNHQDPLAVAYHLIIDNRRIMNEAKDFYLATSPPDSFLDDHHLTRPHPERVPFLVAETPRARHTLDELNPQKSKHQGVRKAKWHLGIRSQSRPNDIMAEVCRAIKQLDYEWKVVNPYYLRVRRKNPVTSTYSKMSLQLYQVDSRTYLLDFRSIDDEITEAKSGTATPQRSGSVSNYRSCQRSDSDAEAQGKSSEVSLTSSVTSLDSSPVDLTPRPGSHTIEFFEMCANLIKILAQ
Chain of Death-associated protein kinase 3 (O43293 whole entry): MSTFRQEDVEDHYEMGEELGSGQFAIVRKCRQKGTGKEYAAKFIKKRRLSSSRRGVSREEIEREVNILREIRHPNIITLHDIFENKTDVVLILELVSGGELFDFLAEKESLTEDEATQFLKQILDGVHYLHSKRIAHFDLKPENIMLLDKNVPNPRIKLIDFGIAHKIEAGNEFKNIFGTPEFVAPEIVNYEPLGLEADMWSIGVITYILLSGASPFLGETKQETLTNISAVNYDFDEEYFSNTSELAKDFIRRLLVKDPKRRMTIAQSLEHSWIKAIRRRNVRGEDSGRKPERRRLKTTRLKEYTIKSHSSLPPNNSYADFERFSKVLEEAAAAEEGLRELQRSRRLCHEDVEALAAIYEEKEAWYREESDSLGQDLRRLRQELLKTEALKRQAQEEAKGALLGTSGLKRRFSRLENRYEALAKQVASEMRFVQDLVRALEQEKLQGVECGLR
Chain of G protein-coupled receptor kinase 5 (P34947 whole entry): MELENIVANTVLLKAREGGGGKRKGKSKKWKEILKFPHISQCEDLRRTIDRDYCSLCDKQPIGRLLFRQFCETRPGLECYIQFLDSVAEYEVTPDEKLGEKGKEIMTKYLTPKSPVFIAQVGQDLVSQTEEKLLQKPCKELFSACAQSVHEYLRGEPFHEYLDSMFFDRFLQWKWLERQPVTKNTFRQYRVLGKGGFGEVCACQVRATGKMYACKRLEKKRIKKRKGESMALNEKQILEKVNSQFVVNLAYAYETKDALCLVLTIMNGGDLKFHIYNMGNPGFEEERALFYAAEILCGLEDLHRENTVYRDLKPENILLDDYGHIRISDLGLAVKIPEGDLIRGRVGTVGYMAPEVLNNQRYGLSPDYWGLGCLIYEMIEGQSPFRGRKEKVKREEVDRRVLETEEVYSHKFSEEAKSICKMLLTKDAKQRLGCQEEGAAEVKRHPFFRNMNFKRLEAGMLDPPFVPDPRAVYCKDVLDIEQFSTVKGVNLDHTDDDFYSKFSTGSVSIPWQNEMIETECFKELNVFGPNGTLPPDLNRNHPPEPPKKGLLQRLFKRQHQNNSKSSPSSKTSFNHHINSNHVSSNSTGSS
Chain of MAP/microtubule affinity-regulating kinase 3 (P27448 whole entry): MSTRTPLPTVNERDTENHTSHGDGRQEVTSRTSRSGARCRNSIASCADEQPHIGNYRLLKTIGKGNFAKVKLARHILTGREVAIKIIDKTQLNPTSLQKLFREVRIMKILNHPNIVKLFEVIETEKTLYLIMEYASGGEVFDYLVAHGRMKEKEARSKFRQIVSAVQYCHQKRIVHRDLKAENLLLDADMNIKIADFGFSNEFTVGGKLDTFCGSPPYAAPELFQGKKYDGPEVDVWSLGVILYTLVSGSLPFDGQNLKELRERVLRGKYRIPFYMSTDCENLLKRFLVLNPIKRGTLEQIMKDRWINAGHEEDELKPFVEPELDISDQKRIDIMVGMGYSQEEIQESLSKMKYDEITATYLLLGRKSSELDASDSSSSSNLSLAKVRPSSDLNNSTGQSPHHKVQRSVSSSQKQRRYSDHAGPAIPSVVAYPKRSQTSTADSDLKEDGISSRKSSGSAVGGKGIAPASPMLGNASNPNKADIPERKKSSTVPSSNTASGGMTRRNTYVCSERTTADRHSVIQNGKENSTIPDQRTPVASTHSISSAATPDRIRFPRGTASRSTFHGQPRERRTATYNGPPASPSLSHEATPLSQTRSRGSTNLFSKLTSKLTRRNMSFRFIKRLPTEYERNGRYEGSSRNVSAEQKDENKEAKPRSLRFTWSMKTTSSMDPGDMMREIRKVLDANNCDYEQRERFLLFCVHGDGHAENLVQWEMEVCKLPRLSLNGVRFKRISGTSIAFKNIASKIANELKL
Chain of Tyrosine-protein kinase ABL1 (P00519 whole entry): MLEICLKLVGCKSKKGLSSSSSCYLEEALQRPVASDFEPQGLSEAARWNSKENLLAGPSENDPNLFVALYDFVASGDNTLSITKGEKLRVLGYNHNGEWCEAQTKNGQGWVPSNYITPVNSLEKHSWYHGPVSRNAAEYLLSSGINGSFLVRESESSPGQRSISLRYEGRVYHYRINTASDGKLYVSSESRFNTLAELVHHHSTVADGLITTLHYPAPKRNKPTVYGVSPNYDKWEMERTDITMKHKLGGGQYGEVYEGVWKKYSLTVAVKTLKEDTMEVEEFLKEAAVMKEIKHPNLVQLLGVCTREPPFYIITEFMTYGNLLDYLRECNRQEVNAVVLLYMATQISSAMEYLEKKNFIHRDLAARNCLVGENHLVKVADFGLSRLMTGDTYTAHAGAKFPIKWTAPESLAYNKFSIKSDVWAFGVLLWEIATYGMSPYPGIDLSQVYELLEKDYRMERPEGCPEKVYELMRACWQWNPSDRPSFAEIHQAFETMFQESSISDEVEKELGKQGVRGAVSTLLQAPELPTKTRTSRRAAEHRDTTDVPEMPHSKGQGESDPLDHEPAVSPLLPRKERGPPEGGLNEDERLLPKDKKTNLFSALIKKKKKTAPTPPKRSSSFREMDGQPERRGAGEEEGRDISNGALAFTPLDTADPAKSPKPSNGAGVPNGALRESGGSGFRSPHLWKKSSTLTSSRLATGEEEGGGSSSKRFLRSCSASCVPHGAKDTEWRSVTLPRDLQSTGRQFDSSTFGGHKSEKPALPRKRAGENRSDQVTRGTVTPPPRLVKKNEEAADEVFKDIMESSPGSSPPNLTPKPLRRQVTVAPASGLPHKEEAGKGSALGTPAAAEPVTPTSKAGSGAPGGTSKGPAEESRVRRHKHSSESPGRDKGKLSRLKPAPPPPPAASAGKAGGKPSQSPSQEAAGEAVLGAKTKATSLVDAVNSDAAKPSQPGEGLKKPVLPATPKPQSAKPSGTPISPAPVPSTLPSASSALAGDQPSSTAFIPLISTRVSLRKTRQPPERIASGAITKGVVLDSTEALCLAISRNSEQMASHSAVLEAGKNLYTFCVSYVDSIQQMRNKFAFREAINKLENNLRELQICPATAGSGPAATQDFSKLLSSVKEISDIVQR

- Ki [1]: > 1.58 µM (inactive)
- Ki [2]: > 3.16 µM (inactive)
- Ki [3]: > 3.16 µM (inactive)
- Ki [4]: 1.58 µM (active)
- Ki [5]: > 3.98 µM (inactive)
- Ki [6]: > 3.98 µM (inactive)
- Ki [7]: > 3.98 µM (inactive)
- Ki [8]: > 5.01 µM (inactive)
- Ki [9]: > 7.94 µM (inactive)
- Ki [10]: > 6.31 µM (inactive)
- Ki [11]: > 5.01 µM (inactive)
- Ki [12]: > 1.26 µM (inactive)
- Ki [13]: > 3.16 µM (inactive)
- Ki [14]: > 2.51 µM (inactive)
- Ki [15]: > 3.98 µM (inactive)
- Ki [16]: > 2.51 µM (inactive)
- Ki [17]: > 3.16 µM (inactive)
- Ki [18]: > 6.31 µM (inactive)
- Ki [19]: > 3.98 µM (inactive)
- Ki [20]: > 2.51 µM (inactive)
- Ki [21]: > 3.98 µM (inactive)
- Ki [22]: > 3.16 µM (inactive)
- Ki [23]: > 3.98 µM (inactive)
- Ki [24]: 0.00631 µM (active)
- Ki [25]: > 3.16 µM (inactive)
- Ki [26]: > 2.51 µM (inactive)
- Ki [28]: > 2.51 µM (inactive)
- Ki [29]: > 3.98 µM (inactive)
- Ki [30]: > 2 µM (inactive)
- Ki [31]: > 3.98 µM (inactive)
- Ki [32]: > 3.98 µM (inactive)
- Ki [33]: > 6.31 µM (inactive)
- Ki [34]: > 3.98 µM (inactive)
- Ki [35]: > 2.51 µM (inactive)
- Ki [36]: > 3.16 µM (inactive)
- Ki [37]: > 100 µM (inactive)
- Ki [38]: > 1.58 µM (inactive)
- Ki [39]: > 6.31 µM (inactive)
- Ki [40]: > 3.98 µM (inactive)
- Ki [41]: > 2.51 µM (inactive)
- Ki [42]: > 3.98 µM (inactive)
- Ki [43]: > 2.51 µM (inactive)
- Ki [44]: > 6.31 µM (inactive)
- Ki [45]: > 5.01 µM (inactive)
- Ki [46]: > 3.98 µM (inactive)
- Ki [47]: > 3.98 µM (inactive)
- Ki [48]: > 5.01 µM (inactive)
- Ki [49]: > 2.51 µM (inactive)
SMILES: Cc1cc(O)nc2[nH]nc(-c3cccc(-c4ccc(Cl)cc4)c3)c12
- Ki [27]: > 5.01 µM (inactive)

- IC50 [50]: 9.29 µM (active)
- IC50 [51]: 7.88 µM (active)
SMILES: CN(C)C(=O)c1ccc(Oc2c(Cl)cnn(Cc3cccc4ccccc34)c2=O)cc1

SMILES: O=c1c2ccccc2n2c(=S)[nH]nc2n1-c1ccccc1
- IC50 [52]: 4.67 µM (active)
- IC50 [53]: 0.376 µM (active)
- IC50 [54]: > 99 µM (inactive)
- IC50 [55]: 25.8 µM (active)
- IC50 [56]: > 100 µM (inactive)

— ChEMBL document CHEMBL1201862, “PubChem BioAssay data set” (2004)
